One series deals with Escherichia coli. Put plainly: Antibacterial activity against Escherichia coli Top10 assessed as inhibition of bacterial growth at 100 uM incubated for 3 hrs by radial diffusion assay. It counts as functional, organism-based.
Series [1] deals with Bacillus subtilis. Put plainly: Antibacterial activity against Bacillus subtilis ATCC6051 assessed as inhibition of bacterial growth at 100 uM incubated for 3 hrs by radial diffusion assay. It counts as functional, organism-based.
Series [2] deals with Bacillus subtilis. Put plainly: Antibacterial activity against Bacillus subtilis ATCC6051 assessed as inhibition of bacterial growth incubated for 1 hr followed by TSB addition and measured after 18 to 24 hrs by microbroth dilution assay. It counts as functional. The note with it: time 19-25 hrs. For orientation: Dilution methods test growth across graded concentrations, often in twofold steps.

For another series, the system named is HEK293. Put plainly: Cytotoxicity against HEK293 cells assessed as effect on cell metabolic activity at 18.2 uM incubated for overnight by MTS assay. It counts as toxicity, cell-based. To be noted: human, hek293, 18.2 µM. In general terms: Formazan colour is commonly taken as a measure of viable cells.
In series [3] the test system is Cell membrane. Put plainly: Induction of membrane translocation in Escherichia coli spheroplasts assessed as increase in fluorescence intensity using FITC-labeled compound by confocal microscopy. It counts as subcellular.
The test system of series [4] is Cell membrane. Put plainly: Induction of membrane permeabilization in Escherichia coli assessed as increase in fluorescence intensity at 2 uM by PI staining based fluorescence spectrophotometric analysis. It counts as subcellular.

Values after ≈ are worked out from the molar mass of the structure shown. Active and inactive are the calls of the source.

Turning to `CC(C)C[C@H](NC(=O)CNC(=O)[C@H](C)NC(=O)[C@H](CCCNC(=N)N)NC(=O)[C@H](CO)NC(=O)[C@H](CO)NC(=O)[C@H](CCCNC(=N)N)NC(=O)[C@@H](N)[C@@H](C)O)C(=O)N[C@@H](CCC(N)=O)C(=O)N[C@@H](Cc1c[nH]c2ccccc12)C(=O)N1CCC[C@H]1C(=O)N[C@H](C(=O)NCC(=O)N[C@@H](CCCNC(=N)N)C(=O)N[C@H](C(=O)N[C@@H](Cc1cnc[nH]1)C(=O)N[C@@H](CCCNC(=N)N)C(=O)N[C@@H](CC(C)C)C(=O)N[C@@H](CC(C)C)C(=O)N[C@@H](CCCNC(=N)N)C(=O)N[C@@H](CCCCN)C(=O)O)C(C)C)C(C)C`, the result in the series with Escherichia coli, in the series on Bacillus subtilis [1], in the series on Cell membrane [3] and in the series on Cell membrane [4] was Active. The MIC with Bacillus subtilis [2] was 18.2 µM (≈ 45 µg/mL). In addition, the Activity result in the series with HEK293 is “Non-Toxic”.

Usually MIC stands for the smallest concentration in the dilution series that meets the test's criterion for growth inhibition.

The values are drawn from ChEMBL document CHEMBL6127153, “Hybrids of Membrane-Translocating Antimicrobial Peptides Show Enhanced Activity through Membrane Permeabilization” (ACS Med Chem Lett, 2024).
